Experimental data as given in patent US20110166195A1, “METHOD FOR THE FORMATION OF MEGAMITOCHONDRIA” (priority 2008, published 2011).
Entries after “also recorded” stand apart in the source; their conditions may differ. Structures can show the parent of a compound that is named as a salt.

Key:
[1] = system: 143B.TK−K7gm cells with megamitochondria; assay: Back-formation of megamitochondria by changes of culture medium; format: cell-based, Human; settings: one hour
Description: Similar experiments were carried out to investigate the back-formation of megamitochondria (FIG. 9). To this end, 143B.TK^−K7 gm cells with megamitochondria were incubated in medium complemented with different additions. Changes of pH value were reached by the addition of 0.04-0.2 mM NaOH into the used culture medium as well as by the addition of HCl and lactic acid, respectively, of values 7.0-5.6 in fresh culture medium. Moreover, the influence of high concentrations of sodium lactate on the back-formation of megamitochondria was analysed by adding 20-210 mM sodium lactate, pH 7.4 into fresh medium without changing the pH value. Treatment of cells with different media was performed for one hour, thereafter the mitochondrial morphology was analysed by fluorescence microscopy.

143B.TK−gm cells = assay: Induction of megamitochondria by changes of culture medium; format: cell-based, Human; settings: medium with HCl or lactic acid (pH 6.7-5.3) or 30-180 mM sodium lactate (pH 7.4 maintained); one hour
Description: (§5) The induction of megamitochondria formation was done by the transfer of acidic medium from 143B.TK^− K7 ρ^0 cells and by an artificial acidification of fresh medium with lactic acid, pH 6.0-6.3. Additional changes of culture medium were performed by an acidification of the medium with HCl, addition of 30-180 mM sodium lactate and 1.3-2.0 mM NaOH.
(§6) To test whether megamitochondria can be induced by extrinsic changes of pH value or lactic acid concentration in the culture medium 143B.TK^−K7gm, 143B.TK^−gm and HeLa were incubated with medium complemented with HCl and lactic acid, respectively (pH 6.7-5.3). Additionally, the influence of high concentrations of sodium lactate (30-180 mM) on the megamitochondria formation was determined without changing the pH. A pH value of 6.7-6.8 and a lactate concentration of 30 mM corresponds to the measured values in the analysed cultivation medium of 143B.TK^−K7 cells. Incubation of cells was carried out for one hour with subsequent analyses of mitochondrial morphology in vivo.

143B.TK−K7gm cells [2] = assay: as above; format: cell-based, Human; settings: medium with HCl or lactic acid (pH 6.7-5.3) or 30-180 mM sodium lactate (pH 7.4 maintained); one hour
Description: as §5, §6

HeLa cells = assay: as above; format: cell-based; settings: medium with HCl or lactic acid (pH 6.7-5.3) or 30-180 mM sodium lactate (pH 7.4 maintained); one hour
Description: as §5, §6

[3] = system: 143B.TK−K7gm cells with megamitochondria; assay: Back-formation of megamitochondria after exchange of acidic medium in drug-treated cells; format: cell-based, Human; settings: fresh medium also with drug; for back-formation of megamitochondria: 6 μM nocodazol or 2.4 mM cytochalasin B for 3 hours, observed one and three hours after medium exchange; for back-formation of megamitochondria (mitochondrial morphology after medium exchange): 10 μM CCCP, 10 μM valinomycin or 1 μM nigericin for 30 minutes, analysed 60 minutes after medium exchange
Description: (C) 143B.TK^−K7gm cells with megamitochondria were incubated with 10 μM CCCP (C A1, B1), 10 μM valinomycin (C A2, B2) or 1 μM nigericin (C A3, B3) for 30 minutes. 60 Minutes after medium exchange (ME) the mitochondrial morphology was analysed. Untreated controls are shown in A A4 and C A4, B4. Calibration marks correspond to 10 μm.
(B) The influence of the actin cytoskeleton on the back-formation of megamitochondria in 143B.TK^−K7gm cells was tested by treatment with 2.4 μM cytochalasin B (A1, A2, C1, D1) or an an equivalent amount of solvent as control (B1, B2, C2, D2) for 3 hours. Mitochondrial morphology was analyzed one (C1, C2) or three hours (D1, D2) after medium exchange. Staining of action cytoskeleton was carried out by Alexa Fluor […] phalloidin in fixed cells (A2, B2).
143B.TK^−K7gm cells with megamitochondria were incubated for 3 hours with 6 μM nocodazol (A1, A2, C1, D1) or as control with an equivalent amount solvent (B1, B2, C2, D2). The analysis of mitochondrial changes in structure were carried out 1 hour (C1, C2) or 3 hours (D1, D2) after the exchange of acidic medium. Arrow heads indicate abnormal ring shaped mitochondrial structures persisting for at least 3 hours. Calibration bars correspond to 10 μm.
(§1) Drugs (final concentrations 6-10 μM nocodazol, 2.4-4 μM cytochalasin B, 10 μM CCCP, 10 μM valinomycin and 1 μM nigericin) were added to standard culture medium at different stages of megamitochondria development.
(§2) To avoid a cross talk in excitation of multiple stained compounds always a sequential scanning mode was used in confocal microscopy.
To investigate the influence of the different chemicals on the back-formation of megamitochondria the cells were incubated with indicated concentrations of CCCP, valinomycin and nigericin for 30 minutes (FIG. 4C).
The influence of tubulin and actin cytoskeleton inhibition on back-formation of megamitochondria was performed with 143B.TK^− K7 gm cells with megamitochondria 3 hours after incubating the cells with 6 μM nocodazol or […] cytochalasin B. After changing the used acidic medium and its replacement by fresh medium also completed by the drugs structural changes of mitochondria were observed one hour and three hours later.

143B.TK−K7gm cells [4] = assay: Formation of megamitochondria in drug-treated cells (fluorescence/confocal microscopy of EGFP-Mito); format: cell-based, Human
Description: (A) 24 h after seeding 143B.TK^−K7gm cells were incubated with 10 μM CCCP (A A1), 10 μM valinomycin (A A2, B) or 1 μM nigericin (A A3) for 18 h.
(§3) (A) 143B.TK^−K7gm cells stained with EGFP-Mito were treated with 4 μM cytochalasin B (A1, A2, B1, B2) at different cultivation times for 9-15 hours or an equivalent amount of solvent as control (A3, A4, B3, B4). Staining of actin cytoskeleton was achieved by Alexa Fluor […] phalloidin in fixed cells (A2, B2, A4, B4). Arrow heads indicate round areas in the cytoplasm observable by actin staining after 62 hours cultivation time.
143B.TK^−K7gm cells were treated with 10 μM nocodazol at different cultivation times for 9-15 hours (A1, A2, B1, B2) or as control with an equivalent amount solvent (A3, A4, B3, B4). The morphology of mitochondria is shown by in vivo EGFP-Mito-staining in the images A1, B1, C1, A3, B3, C3. The staining of tubulin cytoskeleton was performed by an antibody against alpha-tubulin and a Cy3-coupled secondary antibody in fixed cells (A2, B2, A4, B4). Calibration bars correspond to 10 μm.
as §1, §2
To investigate the influence of the mitochondrial membrane potential on the formation and back formation of the megamitochondria 143B.TK^−K7gm cells were incubated with 10 μM CCCP (H^+ ionophore), 10 μM valinomycin (K^+ selective ionophore) and 1 μM nigericin (selective electron neutral K^+/H^+ exchange) (FIG. 4).
(§4) To observe the influence of the tubulin or actin cytoskeleton, respectively, on the formation of megamitochondria 143B.TK^−K7 gm cells were incubated with 10 μM nocodazol or […] cytochalasin B for 9-15 hours.

tubulin polymerisation = assay: Immunocytochemical staining of tubulin cytoskeleton with antibody against alpha-tubulin; format: cell-based, Human; settings: 10 μM nocodazol for 9-15 hours, 143B.TK−K7gm cells
Description: 143B.TK^−K7gm cells were treated with 10 μM nocodazol at different cultivation times for 9-15 hours (A1, A2, B1, B2) or as control with an equivalent amount solvent (A3, A4, B3, B4). […] The staining of tubulin cytoskeleton was performed by an antibody against alpha-tubulin and a Cy3-coupled secondary antibody in fixed cells (A2, B2, A4, B4).
Cells grown on cover slips were treated as indicated, fixed with methanol (−20° C.) for 5 min and permeabilized with 0.2% Triton X-100 in PBS for 5 min at room temperature. After washing three times with PBS (5 min), the blocking reaction was performed with 100 mM glycine in PBS for 10 min following 3% BSA in PBS for 30 min at room temperature.
Subsequently cover slips were incubated with mouse anti-alpha tubulin polyclonal primary antibody diluted 1:50 in 1% BSA in PBS at 4° C. over night. After washing the cells three times with PBS (5 min), the cover slips were incubated with Cy3-conjugated goat secondary antibody in 10% goat serum in PBS for 1 h at room temperature. The cells were washed three times with PBS (7 min) prior to mounting in Mowiol and analysed by fluorescence microscopy.

143B.TK−K7 cells = assay: Mitochondrial membrane potential by JC-1 staining (confocal microscopy); format: cell-based, Human; settings: 10 μM CCCP for 30 minutes before JC-1; 24 and 62 hours cultivation time
Description: Documentation at 24 hours (A1-A3, B1-B3) and 62 hours (C1-C3, D1-D3) cultivation time by JC-1-staining. The red fluorescence of J-aggregates (A1, B1, C1, D1) as well as the green monomer form (A2, B2, C2, D2) were analysed simultaneously by excitation wavelength of 488 nm. Images A3, B3, C3, D3 show overlays. Calibration bars correspond to 10 μm.
To measure differences in mitochondrial membrane potential between the various stages of megamitochondria formation and control cells the dual emission of the potentiometric dye JC-1 was observed. The cells either were incubated directly with 3 μM JC-1 diluted in the standard culture medium and filtered once with 0.2 μm syringe filter for 30 min at 37° C. or first treated with CCCP (final concentration 10 μM) for 30 min for the comparison of cells without membrane potential. The cells were viewed in vivo with the inverse confocal laser scanning microscope (simultaneous excitation of red and green fluorescence by 488 nm wavelength) to observe local differences in the mitochondrial membrane potential.
To determine the mitochondrial membrane potential during the formation of megamitochondria 143B.TK^−K7 cells were either directly stained with JC-1 […] or incubated with […] CCCP for 30 minutes before. […]

actin cytoskeleton = assay: Staining of actin cytoskeleton by phalloidin in fixed cells; format: cell-based, Human; settings: 4 mM cytochalasin B for 9-15 hours, 143B.TK−K7gm cells
Description: as §3
For detection of the actin cytoskeleton cells on cover slips treated as indicated were fixed with 3.7% formaldehyde in PBS for 10 min at room temperature and after three washes in PBS for 5 min permeabilized with 0.1% Triton X-100 in PBS for 5 min. After additional washing steps with PBS (5 min) cells were blocked with 1% BSA in PBS for 30 min at room temperature and incubated with 1 unit (5 μl) Alexa Fluor 546 Phalloidin in 1% BSA in PBS for 20 min at room temperature. After washing the cells three times with PBS for 7 min, the cover slips were mounted with Mowiol and analysed with the confocal microscope.
as §4

[5] = 10 μM nocodazol or 4 mM cytochalasin B for 9-15 hours
[6] = 10 μM CCCP, 10 μM valinomycin or 1 μM nigericin for 18 h, 24 h after seeding

[Na+].[OH-] [NaOH]
back-formation of megamitochondria ([1]; 1.3 mM NaOH added into the acidic medium): did not lead to the back-formation of megamitochondria; also recorded: did not lead to the back formation of megamitochondria
back-formation of megamitochondria ([1]; 2.0 mM NaOH added into the acidic medium): resulted in a change in mitochondrial morphology from spherical forms to tubules and network-like structures; also recorded: sufficient to induce the back-formation of megamitochondria

CC(O)C(=O)O (centres unmarked) [lactic acid]
induction of megamitochondria (143B.TK−gm cells): led to the formation of megamitochondria
induction of megamitochondria (143B.TK−K7gm cells [2]): led to the formation of megamitochondria
induction of megamitochondria (HeLa cells): led to the formation of megamitochondria
back-formation of megamitochondria ([1]; fresh medium acidulated with lactic acid, pH 6.8): the spherical mitochondria changed to a tubular network
back-formation of megamitochondria ([1]; fresh medium acidulated with lactic acid, pH 7.0): resulted in the back-formation of megamitochondria

COC(=O)Nc1nc2ccc(C(=O)c3cccs3)cc2[nH]1 [nocodazol]
back-formation of megamitochondria [3]: only minor influence on back-formation of megamitochondria
formation of megamitochondria (143B.TK−K7gm cells [4]; [5]): no influence of the tubulin cytoskeleton on the formation of megamitochondria
inhibition of tubulin polymerisation (alpha-tubulin staining) (tubulin polymerisation): Complete inhibition of tubulin polymerisation

Cl [HCl]
induction of megamitochondria (143B.TK−gm cells): not possible
induction of megamitochondria (143B.TK−K7gm cells [2]): not possible
induction of megamitochondria (HeLa cells): not possible
back-formation of megamitochondria ([1]; fresh medium acidified with HCl, pH 6.0): did not change their form
back-formation of megamitochondria ([1]; fresh medium acidified with HCl, pH 7.0): formed back to a tubular network

CO[C@@H]1C[C@@H](C[C@H]2CC[C@H](C)[C@H]([C@@H](C)C(=O)O)O2)O[C@]2(O[C@](C)([C@H]3CC[C@@](C)([C@@H]4O[C@@H]([C@H]5O[C@@](O)(CO)[C@H](C)C[C@@H]5C)C[C@@H]4C)O3)C[C@H]2C)[C@@H]1C [nigericin]
back-formation of megamitochondria (mitochondrial morphology after medium exchange) [3]: comparable to the control cells
formation of megamitochondria (143B.TK−K7gm cells [4]; [6]): inhibited

CC(C)[C@@H]1NC(=O)[C@H](C)OC(=O)[C@@H](C(C)C)NC(=O)[C@@H](C(C)C)OC(=O)[C@H](C(C)C)NC(=O)[C@H](C)OC(=O)[C@@H](C(C)C)NC(=O)[C@@H](C(C)C)OC(=O)[C@H](C(C)C)NC(=O)[C@H](C)OC(=O)[C@@H](C(C)C)NC(=O)[C@@H](C(C)C)OC1=O [valinomycin]
back-formation of megamitochondria (mitochondrial morphology after medium exchange) [3]: inhibited the back-formation of megamitochondria
formation of megamitochondria (143B.TK−K7gm cells [4]; [6]): led to the formation of megamitochondria with diameters exceeding the control cells

N#CC(C#N)=NNc1cccc(Cl)c1 [CCCP]
back-formation of megamitochondria (mitochondrial morphology after medium exchange) [3]: comparable to the control cells
formation of megamitochondria (143B.TK−K7gm cells [4]; [6]): inhibited
mitochondrial membrane potential (JC-1 red/green fluorescence) (143B.TK−K7 cells): the red fluorescence was clearly less distinct

C=C1[C@@H](C)[C@H]2[C@H](Cc3ccccc3)NC(=O)[C@]23OC(=O)/C=C/[C@H](O)CCC[C@@H](C)C/C=C/[C@H]3[C@@H]1O [cytochalasin B]
back-formation of megamitochondria [3]: severe influence on megamitochondria back-formation
formation of megamitochondria (143B.TK−K7gm cells [4]; [5]): prevented formation of megamitochondria
effectiveness of drug treatment on actin cytoskeleton (phalloidin staining) (actin cytoskeleton): confirming the effectiveness of drug treatment

CC(O)C(=O)[O-].[Na+] (centres unmarked) [sodium lactate]
induction of megamitochondria (143B.TK−gm cells): not possible
induction of megamitochondria (143B.TK−K7gm cells [2]): not possible
induction of megamitochondria (HeLa cells): not possible
back-formation of megamitochondria ([1]; fresh medium with 20-210 mM sodium lactate, pH 7.4): led to the back-formation of megamitochondria in all used concentrations
